Test results as given in patent US4870081A (priority 1986, dated 1989).
Counter-ions that a name gives are not always drawn. Like-named read-outs stand apart in the source and are kept apart here.

Key:
[1] = biological target: muscarinic receptors (rat cerebral cortex); assay: Radio ligand binding: displacement of the muscarinic agonist 3H-OXO-M (3H-Oxotremorine-M); design: species or system Hooded Lister rats; details: 2 nM 3H-OXO-M, 2 mM magnesium chloride, 37° C., 30 min
[2] = biological target: muscarinic receptors (rat cerebral cortex); assay type: binding, Hooded Lister rats; details: 0.27 nM 3H-QNB, 37° C., 30 min

Row | Compound | IC50 [1] [nM] | IC50 [2] [nM]
1 | COC(=O)C1=CC2CCCN(C1)C2 (racemic) [E8, (±) Methyl 1-azabicyclo[3.3.1]non-3-en-3-yl carboxylate hydrochloride] | 118 | 4100
2 | CC(=O)O[C@@H]1C[C@H]2CCCN(C2)C1 (relative stereo) [E1, (±) exo-1-Azabicyclo[3.3.1]non-3-yl acetate hydrochloride] | 81 | 3900
3 | CCO[C@@H]1C[C@H]2CCCN(C2)C1 (relative stereo) [E2, (±) exo-3-Ethoxy-1-azabicyclo[3.3.1]nonane oxalate] | 210 | 6500
4 | NC(=O)O[C@@H]1C[C@H]2CCCN(C2)C1 (relative stereo) [E3, (±) exo-1-Azabicyclo[3.3.1]non-3-yl carbamate hydrochloride] | 103 | 36000
5 | COC(=O)[C@@H]1C[C@H]2CCCN(C2)C1 (relative stereo) [E4, (±) exo-Methyl 1-azabicyclo[3.3.1]non-3-yl carboxylate oxalate] | 81 | 3900
6 | COC(=O)[C@@H]1C[C@H]2CCCCN(C2)C1 (relative stereo) [E5, (±) exo-Methyl 1-azabicyclo[4.3.1]dec-8-yl carboxylate oxalate] | 153 | 3200
7 | CC(=O)O[C@H]1CN2CCC[C@H]1C2 (relative stereo) [E6, (±) exo-1-Azabicyclo[3.2.1]oct-6-yl acetate hydrochloride] | 82 | 27000
8 | COC(=O)[C@H]1CN2CCC[C@H]1C2 (relative stereo) [E7, (±) exo-Methyl 1-azabicyclo[3.2.1]oct-6-yl carboxylate hydrochloride] | 510 | 65000
9 | COC[C@@H]1C[C@H]2CCCN(C2)C1 (relative stereo) [E9, (±) exo-3-Methoxymethyl-1-azabicyclo[3.3.1]nonane oxalate salt] | 1300 | 38000
10 | C#CCOC(=O)[C@@H]1C[C@H]2CCCN(C2)C1 (relative stereo) [E10, (±) exo-Propargyl 1-azabicyclo[3.3.1]non-3-yl-carboxylate oxylate salt] | 40 | 510
11 | CNC(=O)O[C@@H]1C[C@H]2CCCN(C2)C1 (relative stereo) [E11, (±) exo-1-Azabicyclo[3.3.1]non-3-yl-N-methylcarbamate hydrochloride salt] | 460 | 5200
12 | CC(=O)O[C@H]1CN2CC[C@H]1C2 (relative stereo) [E12, (±) exo-1-Azabicyclo[2.2.1]hept-3-yl acetate oxalate salt] | 175 | 46000
13 | CCO[C@H]1CN2CC[C@H]1C2 (relative stereo) [E13, (±) exo-3-Ethoxy-1-azabicyclo[2.2.1]heptane oxalate salt] | 510 | 54000
14 | CC(=O)O[C@@H]1C[C@H]2CCN(C2)C1 (relative stereo) [E14, (±) exo-1-Azabicyclo[3.2.1]oct-3-yl acetate hydrochloride salt] | 38 | 14000
15 | COC(=O)[C@@H]1C[C@H]2CCN(C2)C1 (relative stereo) [E15, (±) exo-Methyl-1-azabicyclo[3.2.1]oct-3-yl carboxylate hydrochloride] | 80 | 11000
16 | COC(=O)[C@H]1CN2CC[C@H]1C2 (relative stereo) [E16, (±) exo-Methyl 1-azabicyclo[2.2.1]hept-3-yl carboxylate oxalate salt] | 190 | 60000
17 | CCC(=O)O[C@H]1CN2CCC[C@H]1C2 (relative stereo) [E17, (±) exo-1-Azabicyclo[3.2.1]oct-6-yl propionate hydrochloride] | 410 | 7300
18 | CCCO[C@H]1CN2CCC[C@H]1C2 (relative stereo) [E18, (±) exo-6-n-Propoxy-1-azabicyclo[3.2.1]octane hydrochloride] | 630 | 15500
19 | CCO[C@H]1CN2CCC[C@H]1C2 (relative stereo) [E19, (±) exo-6-Ethoxy-1-azabicycl9[3.2.1]octane hydrochloride] | 460 | 64000
20 | CNC(=O)O[C@H]1CN2CCC[C@H]1C2 (relative stereo) [E20, (±) exo-1-Azabicyclo[3.2.1]oct-6-yl-N-methylcarbamate oxalate salt] | 1900 | 42000
21 | CCC(=O)O[C@@H]1C[C@H]2CCCN(C2)C1 (relative stereo) [E21, (±) exo-1-Azabicyclo[3.3.1]non-3-yl propionate hydrochloride salt] | 367 | 1000
22 | CO[C@@H]1C[C@H]2CCCN(C2)C1 (relative stereo) [E22, (±) exo-3-Methoxy-1-azabicyclo[3.3.1]nonane oxalate salt] | 5000 | 170000
23 | CCCO[C@@H]1C[C@H]2CCCN(C2)C1 (relative stereo) [E23, (±) exo-3-n-Propoxy-1-azabicyclo[3.3.1]nonane oxalate salt] | 160 | 1200
24 | CN(C)C(=O)O[C@@H]1C[C@H]2CCCN(C2)C1 (relative stereo) [E24, (±) exo-1-Azabicyclo[3.3.1]non-3-yl-N,N-dimetnyl-carbamate hydrochloride] | 255 | 1800
25 | CCOC(=O)[C@@H]1C[C@H]2CCCN(C2)C1 (relative stereo) [E25, (±) exo-Ethyl 1-azabicyclo[3.3.1]non-3yl carboxylate oxalate salt] | 65 | 620
